Here are results for 3 compounds from patent publication US7115584B2, “HIV-1 mutations selected for by β-2′,3′-didehydro-2′,3′-dideoxy-5-fluorocytidine” (priority 1999, dated 2006).

Like-named read-outs stand apart in the source and are kept apart here.

What is called EC50 is the midpoint of the concentration-response curve. What is called EC90 is the concentration at which the effect reaches the 90% level.

One experiment has as its system HIV-1LAV. In words: Effect against HIV-1 and cloned viruses in human PBM cells. Type of experiment: cell-based.
The test system of a further experiment is M184VPITT. The experiment is described as above. It counts as cell-based.
In experiment [1] the test system is 4X AZTPITT (67N, 70R, 215Y, 219Q). The experiment is described as above. It counts as cell-based.
Another experiment relates to M184V/T215YPITT. The description is as above. It counts as cell-based.
In a further experiment the test system is 215/41PITT. The experiment is described as above. Type of experiment: cell-based.
Experiment [2] has as its system G2-2PITT (103N, 41L, 184V, 210W, others). In words: Effect against cloned viruses, in MT-2 cells. Set-up: unit not given beside the values. It counts as cell-based, HIV-1.
A further experiment concerns xxBRUPITT. Put plainly: Effect against HIV-1 and cloned viruses in human PBM cells. It counts as cell-based.
A further experiment deals with T215YPITT. Described as above. Type of experiment: cell-based.
Experiment [3] relates to acutely infected human PBM cells. In words: Median effect and combination index analysis, alone and in combination. It counts as cell-based. The note with it: PBMC, 144 h.
Setting [4] is: EC50 resistant virus vs HIV-1LAV or xxBRUPITT, listed as β-D-D4FC.

Compound `Nc1nc(=O)n([C@H]2C=C[C@@H](CO)O2)cc1F` [D-D4FC, β-2′,3′-didehydro-2′,3′-dideoxy-5-fluorocytidine] had an EC50 in the experiment on HIV-1LAV (listed as β-D-D4FC) of 220 nM. Besides, the EC90 in the experiment with HIV-1LAV (listed as β-D-D4FC) amounted to 1320 nM; in experiment [1] (human PBM cells, 4X AZTPITT (67N, 70R, 215Y, 219Q), listed as β-D-D4FC) it was 460 nM. The FI50 in the experiment with M184VPITT (setting [4]) is recorded as 2; in [1] (4X AZTPITT, EC50 resistant virus vs HIV-1LAV or xxBRUPITT), 1; with M184V/T215YPITT (setting [4]) it was 1; in experiment [2] (listed as β-D-D4FC), 0.2. In addition, the FI90 was 1 in experiment [1] (4X AZTPITT, EC90 resistant virus vs HIV-1LAV or xxBRUPITT); 1 with M184V/T215YPITT (EC90 resistant virus vs HIV-1LAV or xxBRUPITT, listed as β-D-D4FC); 1 in the experiment with 215/41PITT (EC90 resistant virus vs HIV-1LAV or xxBRUPITT).

As to `Nc1nc(=O)n([C@H]2C=C[C@@H](CO)O2)cc1F` [β-L-D4FC, β-2′,3′-didehydro-2′,3′-dideoxy-5-fluorocytidine], the EC50 was 34 nM in the experiment on HIV-1LAV; 25 nM with xxBRUPITT; 3660 nM in the experiment with M184VPITT (human PBM cells); 4.7 nM in the experiment on T215YPITT; 8300 nM with M184V/T215YPITT (human PBM cells); 18 nM with 215/41PITT (human PBM cells). Also, the EC90 in the experiment with HIV-1LAV turned out to be 160 nM; in the experiment with xxBRUPITT it was 88 nM; in the experiment with M184VPITT (human PBM cells) it was 14300 nM; with T215YPITT, 30 nM; in the experiment with M184V/T215YPITT (human PBM cells), 74600 nM; with 215/41PITT (human PBM cells), 66 nM. Besides, in [2], the FI50 was over 47.

As for `Cc1cn([C@H]2C[C@H](N=[N+]=[N-])[C@@H](CO)O2)c(=O)[nH]c1=O` [AZT, 3′-azido-3′-deoxythymidine], the EC90 in experiment [3] was 32 nM.
